# US7829277B2, “Methods for identifying compounds that suppress chemically-induced carcinogenesis” (The Regents of the University of California, priority 2004, dated 2010)
# B1: BBI: soybean derived serine protease inhibitor with anti-carcinogenic activity (protein, UniProt P01055 40-110, looked up)
# Bowman-Birk type proteinase …: DDESSKPCCDQCACTKSNPPQCRCSDMRLNSCHSACKSCICALSYPAQCFCVDITDFCYEPCKPSEDDKEN
# What was measured:
# [1] = test system: female SENCAR mice; details: topical application; cited from earlier work
# [2] = test system: p21/WAF1/Cip1 protein in cells transfected by the E1A oncogene; details: not in untransfected control cells; cited from earlier work
# [3] = test system: THBS1, PRKAR1A, TOB1, HIF1A mRNA in RWPE-1 and RWPE-2 cells; assay: Real-time RT-PCR verification of selected genes; format: cell-based, human; details: RWPE-1 and RWPE-2 treated with 2 microMoles lunasin; normalized to β-actin
# Procedure: HIFIA-hypoxia-inducible factor 1, alpha subunit; PRKARIA-protein kinase, cAMP-dependent, regulatory, type I, alpha; TOB 1-transducer of ERBB2, 1; THSB 1-thrombospondin 1
# Quantitative PCR. To confirm microarray data, the total RNA prepared for microarray analysis was used for RT-PCR analysis of selected genes. The cDNA used for quantitative PCR was synthesized from 3 μg of total RNA using the SuperScript First-Strand Synthesis for RT-PCR kit (Invitrogen), following manufacturer's recommendations. The cDNA was diluted 4-fold and 2 μl of cDNA was added to the quantitative PCR reaction using FAM-labeled TaqMan probes purchased from Applied Biosystems. The quantitative PCR reactions were performed in triplicate using a PRISM® ABI 7900HT Sequence Detection System (Applied Biosystems) and the expression of the β-actin gene (BACT) was used for normalization. Changes in expression were calculated using relative quantification as follows: ΔΔCt=ΔCtq−ΔCtcb; where Ct=the cycle number at which amplification rises above the background threshold, ΔCt=the change in Ct between two test samples, q=the target gene, and cb=the calibrator gene. Gene expression is then calculated as 2^−ΔΔ^Ct (Applied Biosystems).
# [4] = test system: E1A-transfected C3H10T1/2 cells; details: cited from earlier work
# [5] = test system: C3H 10T1/2 mouse embryo fibroblast cells; details: lunasin added exogenously at nanomolar concentrations; cited from earlier work
# [6] = test system: nucleus; details: after 18 hours of incubation; cited from earlier work
# [7] = test system: E1A-transfected mouse fibroblast NIH 3T3 cells; details: E1A-transfected NIH 3T3 cells; cited from earlier work
# [8] = target: deacetylated histone H4 (Homo sapiens, UniProt P62805); details: chemically synthesized lunasin; cited from earlier work
# [9] = test system: malignant prostate epithelial cells (RWPE-2); assay: Microarray gene expression profile (Affymetrix Human Genome U133A) after lunasin treatment; format: cell-based
# Procedure: (§1) Rostate epithelial cells, RWPE-1 (normal) and RWPE-2 (malignant) were cultivated in the Keratinocyte-Serum free medium with 5 ng/ml rEGF and 0.05 mg/ml bovine pituitary extract. Cells were grown to 70% confluence, after which, cells were harvested and transferred to a 150 mm^2 plate at a cell density of 1×10^7 cells/ml. Lunasin peptide was added to a final concentration of 2 μM. The cells were incubated for 24 hours after lunasin treatment. […] RWPE-1 and RWPE-2 cells that were not treated with lunasin served as negative controls.
# (§2) Microarrray analysis. Total RNA from each treatment was isolated by Trizol (Invitrogen, Carlsbad, Calif.). The cDNA used in microarray analysis was synthesized from 10 μg of total RNA using the SuperScript Choice system (Invitrogen). The cDNA was then transcribed in vitro in the presence of biotin-labeled nucleotide triphophates using T7 RNA polymerase after phenol-chloroform extraction and ethanol precipitation. cRNA was purified using the RNeasy mini kit (Qiagen) and fragmented at 94° C. for 30 min in the buffer containing 0.2 M Tris-acetate (pH 8.1) 0.5 M potassium acetate, and 0.15 M magnesium acetate. Fragmented cRNA was hybridized overnight at 45° C. to the human genome U133A Genechips (Affymetrix) representing approximately 22,215 transcripts. Hybridization was then detected using a confocal laser scanner (Affymetrix). The gene expression levels of samples were normalized and analyzed using RMA analysis (Irizarry et al., 2003).
# [10] = test system: normal prostate epithelial cells (RWPE-1); assay: as above; format: cell-based
# Procedure: as §1, §2
# [11] = test system: PC3 prostate cancer cells; details: PC3 prostate cancer cells treated with genistein; cited from earlier work
# [12] = test system: prostate cancer cell lines; details: cited from earlier work
# [13] = test system: normal prostate epithelial cells; details: cited from earlier work
# [14] = RWPE-1, 24 hour exposure to 2 micromolar lunasin
molecule,measurement,setting,value
lunasin,skin tumorigenesis,[1],inhibited skin tumorigenesis
same,p21/WAF1/Cip1 protein levels,[2],increased by five fold
same,"real-time RT-PCR mRNA level changes of THBS1, PRKAR1A, TOB1, HIF1A",[3],consistent with the microarray data
same,apoptosis induction,[4],induce apoptosis
same,"suppression of chemical carcinogen-induced (DMBA, MCA) foci formation",[5],Significant suppression
same,subcellular localization,[6],localize in the nucleus
same,foci formation,[7],suppress foci formation
same,binding to histone in vitro,[8],preferentially binds deacetylated histone H4
same,genes down-regulated,"[9]; RWPE-2, 24 h lunasin",No genes were down-regulated
same,number of genes up-regulated (greater than twofold),"[9]; RWPE-2 malignant cells, 24 h exposure to lunasin peptide",2 genes
same,genes down-regulated,"[10]; RWPE-1, 24 h lunasin",No genes were down-regulated
same,"Fold-change BNIP3, NIP3 (BCL2/adenovirus E1B 19 kDa interacting prot. 3)",[10]; [14],2.05
same,"Fold-change BUB1B, BUBR1",[10]; [14],2.23
same,"Fold-change ERBB2IP, ERBIN (erbb2 interacting protein)",[10]; [14],2.23
same,Fold-change MAD2L1 (MAD2 mitotic arrest deficient-like 1),[10]; [14],2.12
same,Fold-change PORIMIN (pro-oncosis receptor inducing membrane injury gene),[10]; [14],2.26
same,"Fold-change PRKAR1A, PKA (protein kinase, cAMP-dependent, regulatory, type I, alpha)",[10]; [14],2.45
same,"Fold-change PRKCL2, PRK2 (protein kinase C-like 2)",[10]; [14],2.33
same,"Fold-change PSMC6 (proteasome 26S subunit, ATPase, 6)",[10]; [14],2.58
same,Fold-change RANBP2 (RAN binding protein 2),[10]; [14],2.36
same,Fold-change SMURF2 (E3 ubiquitin ligase SMURF2),[10]; [14],2.29
same,"Fold-change SPTLC1 (serine palmitoyltransferase, long chain base subunit 1)",[10]; [14],2.12
same,"Fold-change THBS1, TSP1 (thrombospondin 1)",[10]; [14],2.05
same,"Fold-change TOB1 (transducer of ERBB2, 1)",[10]; [14],2.32
same,Fold-change TTK (TTK protein kinase),[10]; [14],2.08
same,Fold-change UBE1C (ubiquitin-activating enzyme E1C),[10]; [14],2.15
same,Fold-change USP1 (ubiquitin specific protease 1),[10]; [14],2.23
same,total number of genes with a greater than twofold change in expression,"[10]; RWPE-1 and RWPE-2 together, of up to 22,215 genes screened, 24 h lunasin",123 genes
same,number of genes up-regulated (greater than twofold),"[10]; RWPE-1 normal cells, 24 h exposure to lunasin peptide",121 genes
same,BTB (POZ) containing domain 1 (ABTB1 or BPOZ) gene regulation (microarray),"[10]; microarray, lunasin treatment",up-regulated
same,SP3 gene regulation (microarray),"[10]; microarray, lunasin treatment",up-regulated
same,connexin 43 gap junction protein expression (microarray),"[10]; microarray, lunasin treatment",up-regulates
same,cyclin D1 regulation (microarray),"[10]; microarray, lunasin treatment",do not show down regulation
same,hypoxia-inducible factor-1α (HIF1-A) gene regulation (microarray),"[10]; microarray, lunasin treatment",up-regulated
same,p21/WAF1/Cip1 transcript regulation (microarray),"[10]; microarray, lunasin treatment",did not show up-regulation
O=c1c(-c2ccc(O)cc2)coc2cc(O)cc(O)c12 [genistein],gene expression regulation (microarray),[11],"regulates the expression of genes that are involved in control of cell growth, cell cycle, apoptosis, cell signaling, angiogenesis, tumor cell invasion and metastasis"
B1,"growth, invasion and clonogenic survival of prostate cancer cell lines",[12],"inhibited the growth, invasion and clonogenic survival"
same,effect on normal prostate epithelial cells,[13],no effect
